Results as given in paper PMC7369637, “Inhibition of Resistance-Refractory P. falciparum Kinase PKG Delivers Prophylactic, Blood Stage, and Transmission-Blocking Antiplasmodial Activity” (Cell Chemical Biology, 2020).
Like-named read-outs stand apart in the source and are kept apart here.

Tests used:
[1] = biological target: T1, calcium-dependent protein kinase 1 (CDPK1) (PF3D7_0217500) (Plasmodium falciparum, UniProt P62344); assay: Competitive chemoproteomics in Pf lysates (Kinobeads / bead-immobilized compound); type: binding; details: for Kd: read-out: Kdapp, CDPK1
T1 construct: endogenous in cells; host or cells: P. falciparum asexual blood-stage parasites (trophozoite stage)
T1 sequence (P62344 whole entry): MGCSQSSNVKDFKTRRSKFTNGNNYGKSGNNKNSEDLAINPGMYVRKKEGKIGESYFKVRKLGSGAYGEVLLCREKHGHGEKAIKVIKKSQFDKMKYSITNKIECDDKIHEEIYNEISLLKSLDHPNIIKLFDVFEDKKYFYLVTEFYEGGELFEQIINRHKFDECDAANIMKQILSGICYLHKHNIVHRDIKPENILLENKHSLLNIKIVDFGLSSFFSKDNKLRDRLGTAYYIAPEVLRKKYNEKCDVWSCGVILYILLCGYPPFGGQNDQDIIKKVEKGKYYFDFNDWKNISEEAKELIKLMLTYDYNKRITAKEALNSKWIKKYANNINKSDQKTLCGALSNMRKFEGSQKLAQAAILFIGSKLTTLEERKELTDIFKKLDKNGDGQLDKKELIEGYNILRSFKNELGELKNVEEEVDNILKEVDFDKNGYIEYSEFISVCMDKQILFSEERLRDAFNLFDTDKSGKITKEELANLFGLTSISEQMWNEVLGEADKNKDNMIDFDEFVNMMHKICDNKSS
Experimental: (§1) Pf protein extracts were prepared as described elsewhere ([Paquet et al., 2017]). Parasite cultures at the trophozoite stage were harvested, washed twice in RPMI 1640 medium (Gibco), and lysed by the addition of saponin to a final concentration of 0.1% for 5 min at room temperature. Free parasites were sedimented by centrifugation (3500 rpm for 10 min), washed three times with phosphate-buffered saline, and stored at −80°C. Parasites were resuspended in cell lysis buffer (50 mM tris-HCl (pH 7.5), 5% glycerol, 1.5 mM MgCl2, […], 1 mM […], 25 mM sodium fluoride, 0.8% NP-40, EDTA-free protease inhibitor cocktail tablets (Roche Diagnostics), and 1 mM DTT) and disrupted by sonication (Sonics Vibra-Cell) using two 30-s cycles on ice at half-amplitude. After centrifugation (140,000g for 1 h at 4°C), soluble proteins were recovered from the supernatants, and protein concentrations of each sample were estimated using the Lowry-based DC assay (Bio-Rad). Samples were stored at −80°C until use.
(§2) Kinobeads were prepared by immobilizing Bis-(III) indolyl-maleimide, purvalanol B, staurosporine and CZC8004, and the analogs of PD173955, sunitinib and vandetanib on NHS-activated Sepharose 4 beads (Amersham) ([Bantscheff et al., 2007]). […] The chemoproteomic affinity-capturing experiments were performed as previously described ([Bantscheff et al., 2011]). Briefly, beads were washed and equilibrated in lysis buffer (50 mM Tris-HCl, pH 7.4, 0.4 % Igepal-CA630, 1.5 mM MgCl2, 5 % Glycerol, 150 mM NaCl, 25 mM NaF, 1 mM Na3VO4, 1 mM DTT, and one cOmplete EDTA-free protease inhibitor tablet (Roche) per 25 mL). The beads were incubated at 4°C for 1 h with either 0.1 ml (0.3 mg) Pf blood stage extract or 0.5 mL (2.5 mg) human cell/tissue protein extract (a mixture of HEK-293, K-562, Hep G2 , and placental cells), which was pre-incubated with compound or DMSO (vehicle control). 10 samples were measured in parallel (TMT 10-plex ([Werner et al., 2014])) to generate values for the affinity of the beads to the bound proteins (“depletion” values, 4 samples) and to generate IC50 values (6 samples) in a single experiment. Apparent dissociation constants were determined after accounting for protein depletion by the beads ([Bantscheff et al., 2011]). Beads were transferred to Filter plates (Durapore PVDF membrane, Merck Millipore), washed with lysis buffer, and eluted with SDS sample buffer.
(§3) Proteins were digested according to a modified single pot solid-phase sample preparation (SP3) protocol ([Hughes et al., 2014]). Peptides were labeled with isobaric mass tags (Thermo Fisher Scientific, Waltham, MA) using 10-plex TMT reagents, enabling relative quantification of 10 conditions in a single experiment ([Werner et al., 2014]). The labeling reactions and LC-MS/MS measurements using Q Exactive Orbitrap or Orbitrap Fusion Lumos mass spectrometers (Thermo Fisher Scientific) were performed as described elsewhere ([Sridharan et al., 2019]). Mascot 2.4 (Matrix Science, Boston, MA) was used for protein identification by using a 10 parts per million mass tolerance for peptide precursors and 20 mD (HCD) mass tolerance for fragment ions. To create the fasta file for mascot searching, all proteins corresponding to the taxonomy ‘Plasmodium falciparum (isolate 3D7)’ were downloaded from Uniprot (release 20170621) and supplemented with common contaminant protein sequences of bovine serum albumin, porcine trypsin and mouse, rat, sheep and dog keratins. To assess the false discovery rate (FDR), “decoy” proteins (reverse of all protein sequences) were created and added to the database, resulting in a database containing a total of 14266 protein sequences, with 50% forward and 50% reverse. For peptide and protein identification of human proteins see ([Sridharan et al., 2019]). […]

[2] = biological target: putative amino acid transporter (AAT) (PF3D7_1231400) (Plasmodium falciparum, UniProt Q8I5A6); assay: as above; type: binding; details: lysates exposed to 40 μM of the same compound vs vehicle
Sequence of putative amino acid transporter (AAT) (PF3D7_1231400) (Q8I5A6 entry or part of it): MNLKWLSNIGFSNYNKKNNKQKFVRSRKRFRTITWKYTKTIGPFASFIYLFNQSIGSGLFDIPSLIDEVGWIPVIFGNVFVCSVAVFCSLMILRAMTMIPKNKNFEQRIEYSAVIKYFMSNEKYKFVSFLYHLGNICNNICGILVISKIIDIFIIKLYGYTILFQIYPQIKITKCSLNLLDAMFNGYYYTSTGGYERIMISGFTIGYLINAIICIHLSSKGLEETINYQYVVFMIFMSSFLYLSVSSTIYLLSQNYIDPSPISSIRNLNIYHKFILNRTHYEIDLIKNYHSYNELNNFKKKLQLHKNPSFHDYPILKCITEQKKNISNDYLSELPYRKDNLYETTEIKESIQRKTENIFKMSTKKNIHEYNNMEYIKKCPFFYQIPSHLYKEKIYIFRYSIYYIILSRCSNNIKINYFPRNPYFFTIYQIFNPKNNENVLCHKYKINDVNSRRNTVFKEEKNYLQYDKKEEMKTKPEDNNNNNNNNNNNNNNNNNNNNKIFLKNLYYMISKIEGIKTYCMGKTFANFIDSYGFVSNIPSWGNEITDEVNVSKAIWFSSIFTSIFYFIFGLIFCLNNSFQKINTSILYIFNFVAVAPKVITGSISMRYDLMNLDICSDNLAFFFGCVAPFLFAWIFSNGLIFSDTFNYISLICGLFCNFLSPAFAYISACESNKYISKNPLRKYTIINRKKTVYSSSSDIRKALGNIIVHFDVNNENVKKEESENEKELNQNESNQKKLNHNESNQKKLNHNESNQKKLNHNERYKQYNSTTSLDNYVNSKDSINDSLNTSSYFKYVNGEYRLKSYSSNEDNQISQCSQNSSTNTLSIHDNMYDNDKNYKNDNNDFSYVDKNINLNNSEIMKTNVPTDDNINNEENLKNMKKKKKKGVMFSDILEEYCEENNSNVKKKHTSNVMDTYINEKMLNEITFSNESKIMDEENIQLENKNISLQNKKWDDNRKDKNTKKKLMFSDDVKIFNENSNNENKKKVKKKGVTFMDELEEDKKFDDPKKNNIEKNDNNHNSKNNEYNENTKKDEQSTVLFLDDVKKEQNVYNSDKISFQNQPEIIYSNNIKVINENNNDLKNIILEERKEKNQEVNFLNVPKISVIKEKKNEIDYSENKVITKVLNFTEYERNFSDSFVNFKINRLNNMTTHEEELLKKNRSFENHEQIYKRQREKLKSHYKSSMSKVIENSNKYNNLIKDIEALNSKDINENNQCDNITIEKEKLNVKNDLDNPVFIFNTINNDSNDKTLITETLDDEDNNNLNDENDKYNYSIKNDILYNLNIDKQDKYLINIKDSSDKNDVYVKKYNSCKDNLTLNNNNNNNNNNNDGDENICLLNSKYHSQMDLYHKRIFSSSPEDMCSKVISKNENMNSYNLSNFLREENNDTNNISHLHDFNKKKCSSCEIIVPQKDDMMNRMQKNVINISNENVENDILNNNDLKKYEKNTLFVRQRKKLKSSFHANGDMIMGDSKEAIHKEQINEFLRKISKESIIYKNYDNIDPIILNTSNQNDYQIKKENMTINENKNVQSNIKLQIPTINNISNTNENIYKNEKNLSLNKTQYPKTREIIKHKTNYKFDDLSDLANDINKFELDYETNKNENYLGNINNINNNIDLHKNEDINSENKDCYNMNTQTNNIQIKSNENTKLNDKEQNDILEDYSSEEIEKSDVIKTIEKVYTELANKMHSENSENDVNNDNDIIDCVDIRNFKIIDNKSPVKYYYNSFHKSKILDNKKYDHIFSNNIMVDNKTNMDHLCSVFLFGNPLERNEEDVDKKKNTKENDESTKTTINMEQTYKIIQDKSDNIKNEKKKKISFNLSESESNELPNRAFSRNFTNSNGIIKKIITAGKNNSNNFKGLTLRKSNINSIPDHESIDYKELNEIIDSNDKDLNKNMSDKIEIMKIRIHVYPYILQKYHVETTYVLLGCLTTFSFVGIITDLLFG
Experimental: as §1, §2, §3

Pf 3D7-A10 ABS parasites = assay: 72-h ABS growth inhibition assay, 3D7-A10; type: cell-based; details: Plasmodium falciparum, 3D7, Line 3D7-A10 wild-type
Experimental: Synchronicity was achieved using three rounds of sorbitol treatment on early rings, spaced 48 h apart, followed by magnetic purification of segmented schizonts following the final sorbitol treatment. […] Assays were repeated on at least three independent occasions (each with technical duplicates) and statistical significance was assessed using Mann Whitney U tests.

## CC(C)(CN)c1nc(-c2ccc(Cl)c(O)c2)c(-c2ccncc2)[nH]1 [MMV030084]
[1]; '084-beads (bead-immobilized MMV030084)
  Kd: 220 nM
[1]; Kinobeads
  Kd: 215 nM
[1]; five independent experiments, lowest tested concentration 0.1 μM
  Kd: < 100 nM
[1]; lysates exposed to 40 μM of the same compound vs vehicle
  CDPK1 pull-down by bead-bound compound: pulled down
[1]; two follow-up experiments with lower concentrations
  Kd: 215 to 220 nM
[2]
  AAT pull-down by bead-bound compound: pulled down
Pf 3D7-A10 ABS parasites
  IC50: 178 nM
